Results on one compound are retold here after patent US7935526B2, “hERG channel-expressing cell” (priority 2003, dated 2011).

The data set concerns hERG channel-expressing cells.

Protocol: Specifically, changes in membrane potential may be measured by performing the following operations in a manner as described below. The hERG channel-expressing cell of the invention is cultured for a specific period of time by the appropriate method as described above and suspended in a buffer suitable for measurement. […] Preferably, phosphate buffered saline (pH 7.4) is used. It is preferred that the cell suspension be prepared to give a concentration of 0.2×10^5 cells/ml to 1.0×10^6 cells/ml. Subsequently, the cell suspension is plated on plates (such as Biocoat Poly-D-Lysine 384-Well Black/Clear Plate; BECKTON DICKINSON) and cultured further Cells may be plated at 500 cells/well to 25000 cells/well. Preferably, cells are cultured for about two days after the plating. […] About one hour after the addition of Component A, changes in membrane potential may be measured with FLIPR (Molecular Devices) or FDSS6000 (Hamamatsu Photonics). […] Measurement may be performed at room temperature. hERG inhibitory activity may be calculated from the change in fluorescence intensity caused by the addition of the test compound. […]
About one hour after the addition of Component A, changes in membrane potential were measured with FDSS6000. […] Measurement was performed at room temperature. hERG inhibitory activity was calculated from the fluorescence intensity change for 5 min after the addition of the test substance. […]

As for `[Cl-].[K+]` [KCl], the “changes in membrane potential (fluorescence intensity change)” value is given as “the membrane potential was depolarized”.
